The text below walks through data of ChEMBL document CHEMBL1156159, “Synthesis, cytotoxic activity and structure-activity relationships of hedychenone analogues” (Bioorg Med Chem Lett, 2010).

Values after ≈ are worked out from the molar mass of the structure shown.

One assay deals with MCF7. In words: Cytotoxicity against human MCF7 cells after 24 hrs. In kind it is functional, cell-based.
Another assay deals with HL-60. In words: Cytotoxicity against human HL60 cells after 24 hrs. In kind it is functional, cell-based.
The test system of another assay is CHO. In words: Cytotoxicity against CHO cells after 24 hrs. The assay is classed as cell-based, Cricetulus griseus.
A further assay has as its system A549. Nature of the assay: Cytotoxicity against human A549 cells after 24 hrs. The assay is classed as functional, cell-based.
For a further assay, the system named is A-375. Nature of the assay: Cytotoxicity against human A375 cells after 24 hrs. In kind it is functional, cell-based.
Where [1] appears, read: Homo sapiens, MCF7, 24 h, read-out: IC50.
Setting [2] is: Cricetulus griseus, CHO, 24 h, read-out: IC50.
[3] abbreviates: Homo sapiens, HL-60, 24 h, read-out: IC50.
The mark [4] stands for this setting: Homo sapiens, A549, 24 h, read-out: IC50.
Setting [5] is: Homo sapiens, A-375, 24 h, read-out: IC50.

Broadly, the IC50 is the concentration that inhibits the measured activity by half. For the compound `CC1=CC(=O)[C@H]2C(C)(C)CCC[C@]2(C)[C@H]1/C=C/C1=CC2OC1C1CNCC21` (stereo in doubt; 3p), the concentration for half-maximal inhibition (IC50) in the assay with MCF7 (mcf7) came out at 31.98 µg/mL (≈ 87 µM); with HL-60 (hl-60), 43.18 µg/mL (≈ 117 µM).
Regarding `CC1=CC(=O)[C@H]2C(C)(C)CCC[C@]2(C)[C@H]1/C=C/C1=CC2OC1C1CNCC21` (stereo in doubt; 3o), the half-inhibitory concentration (IC50) with MCF7 (setting [1]) was determined as 36.7 µg/mL (≈ 99.9 µM); in the assay on CHO (setting [2]), 19.2 µg/mL (≈ 52.2 µM); in the assay on HL-60 (setting [3]) it was 39.9 µg/mL (≈ 108 µM).
As for `CC1=CC(=O)[C@H]2C(C)(C)CCC[C@]2(C)[C@H]1/C=C/C1=CC2OC1C1C(=O)c3ccccc3C(=O)C21` (stereo in doubt; 3l), the IC50 in the assay with A549 (setting [4]) amounted to 34.5 µg/mL (≈ 75.5 µM); in the assay with MCF7 (mcf7), 14.72 µg/mL (≈ 32.2 µM); with CHO (cho) it was 7.91 µg/mL (≈ 17.3 µM); in the assay with HL-60 (hl-60), 13.88 µg/mL (≈ 30.4 µM); in the assay with A-375 (a-375), 18.64 µg/mL (≈ 40.8 µM).
For `COC1CCC2C3OC(C=C3/C=C/[C@H]3C(C)=CC(=O)[C@H]4C(C)(C)CCC[C@]34C)C2O1` (stereo in doubt; 3h), the IC50 in the assay with A549 (setting [4]) is 43 µg/mL (≈ 104 µM); in the assay on MCF7 (setting [1]) it was 28 µg/mL (≈ 67.8 µM); with CHO (setting [2]), 14.1 µg/mL (≈ 34.3 µM); in the assay on HL-60 (setting [3]), 27.1 µg/mL (≈ 65.8 µM); in the assay on A-375 (setting [5]) it was 32.1 µg/mL (≈ 77.9 µM).
In the case of `COC1CCC2C3OC(C=C3/C=C/[C@H]3C(C)=CC(=O)[C@H]4C(C)(C)CCC[C@]34C)C2O1` (stereo in doubt; 3j), in the assay on CHO (cho), the IC50 came out at 14.03 µg/mL (≈ 34 µM).
`CC1=CC(=O)[C@H]2C(C)(C)CCC[C@]2(C)[C@H]1/C=C/C1=CC2OC1C1CCOC21` (stereo partly drawn): the figures for the IC50 in the assay on MCF7 (setting [1]), in the assay on HL-60 (setting [3]) and in the assay on A-375 (setting [5]) were 33.9 µg/mL (≈ 91.9 µM), 38 µg/mL (≈ 103 µM) and 43.1 µg/mL (≈ 117 µM), respectively.
In the case of `CC1=CC(=O)[C@H]2C(C)(C)CCC[C@]2(C)[C@H]1CCc1ccoc1`, the IC50 is above 100 µg/mL in the assay on MCF7 (setting [1]), 87 µg/mL (≈ 290 µM) in the assay on HL-60 (setting [3]) and 60 µg/mL (≈ 200 µM) in the assay on A-375 (setting [5]).
`CC1=CC(=O)[C@H]2C(C)(C)CCC[C@]2(C)[C@H]1/C=C/C1=C[C@@H]2O[C@@H]1[C@H]1C(=O)OC(=O)[C@H]12`: the IC50 with MCF7 (setting [1]) is 24.1 µg/mL (≈ 60.8 µM); in the assay with CHO (setting [2]), 12.1 µg/mL (≈ 30.6 µM); with HL-60 (setting [3]), 28.1 µg/mL (≈ 70.9 µM); in the assay with A-375 (setting [5]), 30.4 µg/mL (≈ 76.7 µM).
On to `CC1=CC(=O)[C@H]2C(C)(C)CCC[C@]2(C)[C@H]1/C=C/C1=C[C@H]2O[C@H]1[C@@H]1C(=O)C=CC(=O)[C@@H]12`, for which the IC50 in the assay with MCF7 (setting [1]) came out at 15.4 µg/mL (≈ 37.9 µM); in the assay on CHO (setting [2]) it was 8.28 µg/mL (≈ 20.4 µM); with HL-60 (setting [3]), 14.7 µg/mL (≈ 36.2 µM); in the assay on A-375 (setting [5]), 20.1 µg/mL (≈ 49.5 µM).
Consider `CC1=CC(=O)[C@H]2C(C)(C)CCC[C@]2(C)[C@H]1/C=C/C1=CC2OC1C1OCCC21` (stereo partly drawn), for which the half-inhibitory concentration (IC50) in the assay with A549 (setting [4]) was determined as 48.4 µg/mL (≈ 131 µM); in the assay with MCF7 (setting [1]) it was 30.1 µg/mL (≈ 81.8 µM); with HL-60 (setting [3]) it was 38.4 µg/mL (≈ 104 µM).
`COC1CCC2C3C=C(/C=C/[C@H]4C(C)=CC(=O)[C@H]5C(C)(C)CCC[C@]45C)C(O3)C2O1` (stereo in doubt; 3i): the IC50 with A549 (a549) was 47.71 µg/mL (≈ 116 µM); in the assay on MCF7 (mcf7), 29.3 µg/mL (≈ 71 µM); in the assay with CHO (cho), 13.91 µg/mL (≈ 33.7 µM); in the assay on HL-60 (hl-60) it was 28.41 µg/mL (≈ 68.9 µM); in the assay with A-375 (a-375), 31.12 µg/mL (≈ 75.4 µM).
As to `CC1=CC(=O)[C@H]2C(C)(C)CCC[C@]2(C)[C@H]1C=O`, the 50% inhibitory concentration (IC50) in the assay on MCF7 (setting [1]) stood at 38.1 µg/mL (≈ 163 µM); with CHO (setting [2]), 34.9 µg/mL (≈ 149 µM); in the assay with HL-60 (setting [3]), 39.7 µg/mL (≈ 169 µM); with A-375 (setting [5]), 35.1 µg/mL (≈ 150 µM).
For the compound `COC1CCC2C3C=C(/C=C/[C@H]4C(C)=CC(=O)[C@H]5C(C)(C)CCC[C@]45C)C(O3)C2O1` (stereo in doubt; 3g), the concentration for half-maximal inhibition (IC50) amounted to 43.2 µg/mL (≈ 105 µM) in the assay on A549 (setting [4]); 28.1 µg/mL (≈ 68.1 µM) in the assay with MCF7 (setting [1]); 13.1 µg/mL (≈ 31.7 µM) in the assay with CHO (setting [2]); 27.7 µg/mL (≈ 67.1 µM) in the assay with HL-60 (setting [3]); 30.2 µg/mL (≈ 73.2 µM) in the assay with A-375 (setting [5]).
In the case of `CC1(C)CCC[C@@]2(C)[C@H]1C(=O)CC(C)(C1(C)CC(=O)[C@H]3C(C)(C)CCC[C@]3(C)C1/C=C/c1ccoc1)[C@@H]2/C=C/c1ccoc1` (stereo partly drawn), the IC50 was found to be 23 µg/mL (≈ 38.4 µM) in the assay with A549 (setting [4]); 11.2 µg/mL (≈ 18.7 µM) with MCF7 (setting [1]); 6.91 µg/mL (≈ 11.5 µM) in the assay on CHO (setting [2]); 13.9 µg/mL (≈ 23.1 µM) in the assay on HL-60 (setting [3]); 16.8 µg/mL (≈ 28.1 µM) in the assay with A-375 (setting [5]).
Regarding `CC1CC(=O)[C@H]2C(C)(C)CCC[C@]2(C)[C@H]1CCc1ccoc1` (stereo partly drawn), the IC50 with MCF7 (setting [1]), with HL-60 (setting [3]) and with A-375 (setting [5]) was above 100 µg/mL each time.
Consider `CC1=CC(=O)[C@H]2C(C)(C)CCC[C@]2(C)[C@H]1/C=C/C1=C[C@H]2O[C@H]1[C@H]1C(=O)OC(=O)[C@H]12` (stereo in doubt; 3b), for which the IC50 with A549 (setting [4]) was 36.4 µg/mL (≈ 91.9 µM); with MCF7 (setting [1]) it was 17 µg/mL (≈ 42.9 µM); in the assay on CHO (setting [2]), 9.11 µg/mL (≈ 23 µM); with HL-60 (setting [3]) it was 16.9 µg/mL (≈ 42.7 µM); with A-375 (setting [5]), 20 µg/mL (≈ 50.5 µM).
For `CC1=CC(=O)[C@H]2C(C)(C)CCC[C@]2(C)[C@H]1[C@@H]1O[C@@H]1c1ccoc1` the same measures were 31.1 µg/mL (≈ 99.1 µM), 20.1 µg/mL (≈ 63.9 µM), 9.61 µg/mL (≈ 30.6 µM), 19.4 µg/mL (≈ 61.8 µM) and 26.1 µg/mL (≈ 83.1 µM).
Taken in the same sequence, the figures for `CC1=CC(=O)[C@H]2C(C)(C)CCC[C@]2(C)[C@H]1/C=C/C1=C[C@H]2O[C@H]1[C@H]1C(=O)C=CC(=O)[C@H]12` were 35.9 µg/mL (≈ 88.3 µM), 15.7 µg/mL (≈ 38.7 µM), 8.19 µg/mL (≈ 20.1 µM), 14.1 µg/mL (≈ 34.6 µM) and 19 µg/mL (≈ 46.8 µM).
With `CC1(C)CCC[C@]2(C)[C@@H](/C=C/c3ccoc3)C(CO)=CC(=O)[C@@H]12` [YUNNACORONARIN D], the IC50 with A549 (setting [4]) is 50.1 µg/mL (≈ 159 µM); in the assay with MCF7 (setting [1]), 34.3 µg/mL (≈ 109 µM); with CHO (setting [2]), 39 µg/mL (≈ 124 µM); in the assay with HL-60 (setting [3]), 26.2 µg/mL (≈ 83.3 µM); in the assay with A-375 (setting [5]) it was 40 µg/mL (≈ 127 µM).
For `CC1=CC(=O)[C@H]2C(C)(C)CCC[C@]2(C)[C@H]1/C=C/c1ccoc1` [HEDYCHENONE], the half-maximal inhibitory concentration (IC50) with A549 (setting [4]) was 33.1 µg/mL (≈ 111 µM); with MCF7 (setting [1]) it was 19.4 µg/mL (≈ 65 µM); in the assay on CHO (setting [2]), 8.2 µg/mL (≈ 27.5 µM); in the assay with HL-60 (setting [3]) it was 17.7 µg/mL (≈ 59.2 µM); in the assay on A-375 (setting [5]) it was 21.1 µg/mL (≈ 70.8 µM).
Taken in the same sequence, the figures for `CC1=CC(=O)[C@H]2C(C)(C)CCC[C@]2(C)[C@H]1/C=C/C1=C[C@H]2O[C@H]1[C@@H]1C(=O)OC(=O)[C@@H]12` were 39.9 µg/mL (≈ 101 µM), 18.6 µg/mL (≈ 46.9 µM), 10.4 µg/mL (≈ 26.3 µM), 17 µg/mL (≈ 42.9 µM) and 20.4 µg/mL (≈ 51.4 µM).
As to `CC1=CC(=O)[C@H]2C(C)(C)CCC[C@]2(C)[C@H]1/C=C/C1=C[C@H]2O[C@H]1[C@H]1C(=O)OC(=O)[C@H]12` (stereo in doubt; 3c), the IC50 stood at 23.18 µg/mL (≈ 58.5 µM) in the assay with MCF7 (mcf7), 11.08 µg/mL (≈ 27.9 µM) in the assay with CHO (cho), 21.73 µg/mL (≈ 54.8 µM) with HL-60 (hl-60) and 27.84 µg/mL (≈ 70.2 µM) in the assay on A-375 (a-375).
Take `CC1=CC(=O)[C@H]2C(C)(C)CCC[C@]2(C)[C@H]1/C=C/C1=CC2OC1C1C(=O)c3ccccc3C(=O)C21` (stereo in doubt; 3k): the IC50 amounted to 15 µg/mL (≈ 32.8 µM) in the assay with MCF7 (setting [1]), 7.94 µg/mL (≈ 17.4 µM) in the assay on CHO (setting [2]), 13.7 µg/mL (≈ 30 µM) with HL-60 (setting [3]) and 18.7 µg/mL (≈ 41 µM) in the assay with A-375 (setting [5]).
